In this experiment the test system is CD2F1 mice, L1210 leukemia ip, survival T/C. The experiment can be described thus: NCI In Vivo Anticancer Drug Screen. Data for tumor model L1210 Leukemia (intraperitoneal) in CD2F1 (CDF1) mice. The settings on record: higher = longer survival. In a few lines:
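Activity against a transplanted murine tumor was judged by comparing the compound group with a vehicle group. The outcome in the treated animals was divided by that in the controls.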

The mark [1] stands for this setting: endpoint: mean survival time, dose: 50.0 mg/kg/injection, schedule: Q01DX009 (ip), vehicle: saline with Tween-80.
Setting [2] is: endpoint: mean survival time, dose: 100.0 mg/kg/injection, schedule: Q01DX009 (ip), vehicle: saline with Tween-80.
Setting [3] is: endpoint: mean survival time, dose: 200.0 mg/kg/injection, schedule: Q01DX009 (ip), vehicle: saline with Tween-80.
Where [4] appears, read: endpoint: mean survival time, dose: 100.0 mg/kg/injection, schedule: Q04DX003 (ip), vehicle: saline with Tween-80.
Setting [5] is: endpoint: mean survival time, dose: 200.0 mg/kg/injection, schedule: Q04DX003 (ip), vehicle: saline with Tween-80.
Where [6] appears, read: endpoint: mean survival time, dose: 400.0 mg/kg/injection, schedule: Q04DX003 (ip), vehicle: saline with Tween-80.
Setting [7] is: endpoint: mean survival time, dose: 100.0 mg/kg/injection, schedule: Q01DX001 (ip), vehicle: saline with Tween-80.
[8] abbreviates: endpoint: mean survival time, dose: 200.0 mg/kg/injection, schedule: Q01DX001 (ip), vehicle: saline with Tween-80.
Where [9] appears, read: endpoint: mean survival time, dose: 50.0 mg/kg/injection, schedule: Q04DX002 (ip), vehicle: saline with Tween-80.

Structures are written as SMILES. Where “and” joins values, the source holds several entries; their conditions need not be identical. Equal values may be shown once. Inconclusive results and toxic doses are left out.

`Cc1c(C#N)sc2ccccc12`: the T/C is, setting by setting: (endpoint: mean survival time, dose: 50.0 mg/kg/injection, schedule: Q01DX009 (ip), vehicle: other) 112 % of control; (endpoint: mean survival time, dose: 100.0 mg/kg/injection, schedule: Q01DX009 (ip), vehicle: other) 95 % of control; (endpoint: mean survival time, dose: 100.0 mg/kg/injection, schedule: Q04DX003 (ip), vehicle: other) 109 % of control; (endpoint: mean survival time, dose: 200.0 mg/kg/injection, schedule: Q04DX003 (ip), vehicle: other) 92 % of control.
As for `O=c1ccc2c([nH]1)CCCC2`, the T/C is 92 % of control under setting [1], 103 % of control under setting [2] and 103 % of control under setting [3].
With `Cc1cc(CSC(=N)N)c(C)cc1CSC(=N)N`, the T/C (endpoint: mean survival time, dose: 5.0 mg/kg/injection, schedule: Q01DX009 (ip), vehicle: saline with Tween-80) is 92 % of control; the T/C (endpoint: mean survival time, dose: 5.0 mg/kg/injection, schedule: Q04DX003 (ip), vehicle: saline with Tween-80) was 106 % of control; the T/C (endpoint: mean survival time, dose: 10.0 mg/kg/injection, schedule: Q01DX009 (ip), vehicle: saline with Tween-80) was 101 % of control; the T/C (endpoint: mean survival time, dose: 10.0 mg/kg/injection, schedule: Q04DX003 (ip), vehicle: saline with Tween-80) was 106 % of control; the T/C (endpoint: mean survival time, dose: 20.0 mg/kg/injection, schedule: Q01DX009 (ip), vehicle: saline with Tween-80) is 95 % of control; the T/C (endpoint: mean survival time, dose: 20.0 mg/kg/injection, schedule: Q04DX003 (ip), vehicle: saline with Tween-80) was 101 % of control.
Turning to `COC(=O)C1C2C(=O)NC(=O)C2C(c2ccc(-c3ccccc3)cc2)N1C1CCCCC1` (centres undefined), the T/C runs as follows: under setting [4], 105 % of control; under setting [5], 100 % of control; under setting [6], 103 % of control.
Take `Cc1ccccc1N=Nc1ccc(O)cc1`: the T/C was 105 % of control under setting [1]; 103 % of control under setting [7]; 100 % of control under setting [2]; 92 % of control under setting [8]; 103 % of control under setting [3].
Take `NC(=S)NN=C1CCCCC1`: the T/C is 98 % of control (endpoint: mean survival time, dose: 6.25 mg/kg/injection, schedule: Q01DX009 (ip), vehicle: saline with Tween-80); 96 % of control (endpoint: mean survival time, dose: 12.5 mg/kg/injection, schedule: Q01DX009 (ip), vehicle: saline with Tween-80); 98 % of control (endpoint: mean survival time, dose: 25.0 mg/kg/injection, schedule: Q01DX009 (ip), vehicle: saline with Tween-80).
`O=C(O)CC(NC(=O)CP(=O)(O)O)C(=O)O.[NH-]C1CCCCC1[NH-].[Pt+2]` (centres undefined): the T/C runs as follows: (endpoint: mean survival time, dose: 3.12 mg/kg/injection, schedule: Q01DX009 (ip), vehicle: dextrose) 238 % of control; (endpoint: mean survival time, dose: 6.25 mg/kg/injection, schedule: Q01DX009 (ip), vehicle: dextrose) 274 % of control; (endpoint: mean survival time, dose: 7.9 mg/kg/injection, schedule: Q04DX003 (ip), vehicle: saline) 122 % of control; (endpoint: mean survival time, dose: 8.0 mg/kg/injection, schedule: Q04DX003 (ip), vehicle: dextrose) 231 % of control; (endpoint: mean survival time, dose: 11.9 mg/kg/injection, schedule: Q04DX003 (ip), vehicle: dextrose) 280 % of control; (endpoint: mean survival time, dose: 12.0 mg/kg/injection, schedule: Q04DX003 (ip), vehicle: dextrose) 174 % of control. Moreover, the T/C (endpoint: mean survival time, dose: 12.5 mg/kg/injection, schedule: Q01DX009 (ip), vehicle: dextrose) was 92 % of control; the T/C (endpoint: mean survival time, dose: 17.89 mg/kg/injection, schedule: Q04DX003 (ip), vehicle: dextrose) was 237 % of control; the T/C (endpoint: mean survival time, dose: 18.0 mg/kg/injection, schedule: Q04DX003 (ip), vehicle: dextrose) is 225 % of control; the T/C (endpoint: mean survival time, dose: 26.7 mg/kg/injection, schedule: Q04DX003 (ip), vehicle: dextrose) is 184 % of control; the T/C (endpoint: mean survival time, dose: 26.7 mg/kg/injection, schedule: Q04DX003 (ip), vehicle: saline) was 260 % of control; the T/C (endpoint: mean survival time, dose: 40.0 mg/kg/injection, schedule: Q04DX003 (ip), vehicle: dextrose) was 265 % of control. Moreover, the T/C runs as follows: (endpoint: mean survival time, dose: 40.0 mg/kg/injection, schedule: Q04DX003 (ip), vehicle: saline) 298 % of control; (endpoint: mean survival time, dose: 60.0 mg/kg/injection, schedule: Q04DX003 (ip), vehicle: dextrose) 194 % of control; (endpoint: mean survival time, dose: 60.0 mg/kg/injection, schedule: Q04DX003 (ip), vehicle: saline) 306 % of control; (endpoint: mean survival time, dose: 90.0 mg/kg/injection, schedule: Q04DX003 (ip), vehicle: dextrose) 169 % of control; (endpoint: median survival time, dose: 2.0 mg/kg/injection, schedule: Q01DX009 (ip), vehicle: dextrose) 209 % of control; (endpoint: median survival time, dose: 4.0 mg/kg/injection, schedule: Q01DX009 (ip), vehicle: dextrose) 262 % of control. Further, the T/C is 177 % of control (endpoint: median survival time, dose: 9.0 mg/kg/injection, schedule: Q01DX009 (ip), vehicle: dextrose); 182 % of control (endpoint: median survival time, dose: 10.0 mg/kg/injection, schedule: Q01DX001 (ip), vehicle: dextrose); 201 % of control (endpoint: median survival time, dose: 15.0 mg/kg/injection, schedule: Q01DX001 (ip), vehicle: other); 208 % of control (endpoint: median survival time, dose: 17.98 mg/kg/injection, schedule: Q04DX003 (ip), vehicle: dextrose); 206 % of control (endpoint: median survival time, dose: 20.0 mg/kg/injection, schedule: Q01DX001 (ip), vehicle: dextrose); 220 % of control (endpoint: median survival time, dose: 27.0 mg/kg/injection, schedule: Q04DX003 (ip), vehicle: dextrose). Also, the T/C (endpoint: median survival time, dose: 30.0 mg/kg/injection, schedule: Q01DX001 (ip), vehicle: other) is 681 % of control and the T/C (endpoint: median survival time, dose: 40.0 mg/kg/injection, schedule: Q01DX001 (ip), vehicle: dextrose) is 188 % of control.
For the compound `O=S(=O)(O)c1ccc2ncccc2c1`, the T/C under setting [9] is 111 % of control.
With `O=c1[nH]cnc2nn(C3OC(CO)C(O)C3O)nc12` (centres undefined), the T/C (endpoint: median survival time, dose: 12.5 mg/kg/injection, schedule: Q01DX005 (ip), vehicle: saline) was 94 % of control; the T/C (endpoint: median survival time, dose: 25.0 mg/kg/injection, schedule: Q01DX005 (ip), vehicle: saline) is 94 % of control; the T/C (endpoint: median survival time, dose: 50.0 mg/kg/injection, schedule: Q01DX005 (ip), vehicle: saline) was 91 % of control; the T/C (endpoint: median survival time, dose: 100.0 mg/kg/injection, schedule: Q01DX005 (ip), vehicle: saline) was 97 % of control and 103 % of control; the T/C (endpoint: median survival time, dose: 200.0 mg/kg/injection, schedule: Q01DX005 (ip), vehicle: saline) is 101 % of control and 107 % of control; the T/C (endpoint: median survival time, dose: 400.0 mg/kg/injection, schedule: Q01DX005 (ip), vehicle: saline) is 103 % of control.
Consider `O=[N+]([O-])c1cc(CCl)ccc1CCl`, for which the T/C is, setting by setting: (endpoint: mean survival time, dose: 75.0 mg/kg/injection, schedule: Q01DX001 (ip), vehicle: other) 96 % of control; (endpoint: mean survival time, dose: 150.0 mg/kg/injection, schedule: Q01DX001 (ip), vehicle: other) 96 % of control.
As to `CC(C)(C)C(=O)CC1(O)C(=O)Nc2cccc(C(F)(F)F)c21` (centres undefined), the T/C by setting is: (endpoint: mean survival time, dose: 100.0 mg/kg/injection, schedule: Q04DX002 (ip), vehicle: saline with Tween-80) 102 % of control; (endpoint: mean survival time, dose: 200.0 mg/kg/injection, schedule: Q04DX002 (ip), vehicle: saline with Tween-80) 109 % of control; (endpoint: mean survival time, dose: 400.0 mg/kg/injection, schedule: Q04DX002 (ip), vehicle: saline with Tween-80) 102 % of control.
In the case of `Cc1c(C)c2c(c(C)c1OC(=O)CCC(=O)O)CCC(C)(CCCC(C)CCCC(C)CCCC(C)C)O2` (centres undefined), the T/C is, setting by setting: under setting [4], 102 % of control; under setting [5], 98 % of control; under setting [6], 94 % of control.
For the compound `CC12CCC(=O)C1O2` (centres undefined), the T/C is, setting by setting: (endpoint: mean survival time, dose: 12.5 mg/kg/injection, schedule: Q04DX002 (ip), vehicle: saline with Tween-80) 103 % of control; (endpoint: mean survival time, dose: 25.0 mg/kg/injection, schedule: Q04DX002 (ip), vehicle: saline with Tween-80) 100 % of control; under setting [9], 100 % of control.
Take `CC1=C(C)CS(=O)(=O)N(c2ccccc2)C1`: the T/C is 101 % of control under setting [7]; 98 % of control under setting [2]; 98 % of control under setting [8]; 95 % of control under setting [3]; 86 % of control (endpoint: mean survival time, dose: 400.0 mg/kg/injection, schedule: Q01DX001 (ip), vehicle: saline with Tween-80); 95 % of control (endpoint: mean survival time, dose: 400.0 mg/kg/injection, schedule: Q01DX009 (ip), vehicle: saline with Tween-80).

Values taken from PubChem BioAssay AID256 (DTP/NCI, 2004).
